Structures are written as SMILES. “Also recorded” adds a separate entry of the source. Like-named read-outs stand apart in the source and are kept apart here.

Experimental findings from patent publication US20100178700A1, “NOVEL THYMIC CELLULAR POPULATIONS AND USES THEREOF” (priority 2007, published 2010) are described below.

Data set [1] concerns Aire. Description: Aire expression in mTEC during thymic recovery. The text has this: Primary antibodies and lectins used were FITC-conjugated UEA-1 lectin (Silenus?), Ki67 (BD), PE-conjugated Ly51 (clone 6C3, Pharmingen) Ki67 (BD), I-A/I-E (BD), CD45 (LCA)(BD), PerCP Cy5.5 conjugated CD45 (BD), APC-conjugated I-A/I-E (Miltenyi), biotinylated CD31 (BD), and EpCAM (G8.8a, prepared in-house from a clone kindly donated by Dr. A. Fan) MTS15 hybridoma supernatant (prepared in-house), rat anti-mouse Aire (a kind gift from Dr. H. Scott). Secondary reagents used were FITC-conjugated anti-rat IgG2c, Streptavidin PerCPCy5.5 and Streptavidin APC.
Antibodies and conjugates were obtained from BD Pharmingen (USA) unless otherwise indicated. […] Secondary antibodies used were anti-rat IgG2c (Southern Biotech, USA), anti-rat IgG2a (Southern Biotech, USA) Streptavidin PerCP Cy5.5 and Streptavidin APC, anti-rabbit IgG-Alexa 488 (Invitrogen, USA).

The test system of data set [2] is thymocytes. Briefly: Thymus cellularity and thymocyte subsets after drug-induced thymus depletion. As to conditions: mice, i.p. treatment.
Description: (§1) Male and female C57B16 mice aged at 4-8 weeks were obtained from Monash Animal Services and housed under SPF conditions.
(§2) Control mice were injected with the same volume of PBS.
Control mice were given PBS alone.
(§3) Mice were given either 20 mg/kg Dexamethasone (Lyppards, Australia) or the equivalent volume of PBS as a single i.p. injection.
(§4) In all experiments, the final day of treatment was designated as Day 0. Mice were then humanely killed by CO2 asphyxiation at various timepoints.
(§5) Each thymus was thoroughly cleaned of fat and connective tissue and its capsule nicked with fine scissors. Each thymus was then incubated at 37° C. for 10 minutes in 2 mL of 0.125% (w/v) Collagenase D with 500 μL of 0.1% (w/v) DNAse I (both from Roche, Germany) in RPMI-1640, with regular agitation. The supernatant was collected, kept on ice, and the digestion repeated using the remaining settled thymic fragments. After 3 digestions, the remaining aggregates were incubated for 10 minutes with 1 mL of 0.125% (w/v) Collagenase/Dispase (Roche, Germany) with 500 μL 0.1% (w/v) DNAse I in RPMI-1640. Cells from all supernatant fractions were then pooled and centrifuged at 472 gmax for 5 minutes, then resuspended in cold EDTA/FACS buffer (5 mM EDTA in PBS with 2% FCS and 0.02% NaN3). Cells were filtered through 100 μm mesh. Cell counts were performed using a Z2 Coulter Counter (Beckman Coulter USA).
(§6) Male and female C57B1/6J (B6) mice aged at 8-12 weeks were obtained from Monash Animal Services and housed under SPF conditions, in accordance with institutional guidelines.
(§7) In all experiments, the final day of treatment was designated as Day 0. Mice were then humanely killed by CO2 asphyxiation at indicated timepoints.
(§8) Briefly, thymi were agitated in RPMI-1640 to flush out thymocytes. After collecting supernatant, thymic fragments were incubated individually at 37° C. for 10 minutes in 2 mL of 0.125% (w/v) Collagenase D with 500 μL of 0.1% (w/v) DNAse I (both from Roche, Germany) in RPMI-1640, with regular agitation. The supernatant was collected, kept on ice, and the digestion repeated three times, followed by a final 10 minute digestion in 1 mL of 0.125% (w/v) Collagenase/Dispase (Roche, Germany) with 500 μL 0.1% (w/v) DNAse I in RPMI-1640. The supernatant fractions were then pooled and centrifuged, keeping each thymus separate, at 472 gmax for 5 minutes, and resuspended in cold EDTA/FACS buffer (5 mM EDTA in PBS with 2% FCS and 0.02% Sodium Azide). Cells were filtered through 100 μm mesh. Cell counts were performed using a Z2 Coulter Counter (Beckman Coulter USA).
Data set [3] concerns thymic epithelial cells. Description: Thymic epithelial cell (TEC) subsets by flow cytometry after drug-induced thymic damage. As to conditions: for effect on TEC subsets: mice, i.p. treatment. (In general: Flow cytometry measures light scatter and fluorescence of single cells or particles in a stream.)
Description: as §2
Control mice were given PBS alone.
as §3, §4, §5
(§9) Cells were washed in cold EDTA/FACS buffer and 5×10^6 cells dispensed into 96 well round-bottom plates, Cells were suspended in 50 μL of a primary mAb (hybridoma supernatant or suboptimal dilution of purified antibody) or conjugate for 15 minutes at 4° C. in the dark, followed by a wash step (200 μL EDTA/FACS buffer, 1300 rpm centrifuge for 3 minutes). Secondary mAb were then added and incubated and cells were washed twice. For intracellular staining, cells were washed once in cold PBS then fixed and permeabilised using the BD Cytofix/Cytoperm kit (BD Biosciences, USA) according to the manufacturer's instructions. Cells were stained with 50 μL of primary antibody diluted in PermWash buffer for 30 mins, then washed in PermWash buffer and incubated with secondary antibody where required. Cells were washed in PermWash, then finally washed in FACS buffer, before being resuspended in 200 μL of FACS or EDTA/FACS buffer for acquisition.
(§10) A FACScalibur and CellQuest software (BD Biosciences, USA) were used for flow cytometric analysis, using four fluorescent channels (FL1 for FITC, FL2 for PE, FL3 for CyChrome/PECy5, PerCP and PI, and FL4 for APC). All compensations were performed on single colour labelling of an appropriate cell sample containing both positive and negative populations. Exclusion of non-viable and haemopoietic cells was based on forward light scatter versus side light scatter and CD45 expression respectively.
as §7, §8
Data set [4] concerns thymocytes. As to conditions: mouse, in vivo.
Description: as §1, §2
Control mice were given PBS alone.
as §3, §4, §5, §6, §7, §8
Data set [5] deals with thymic epithelial cells. As to conditions: mouse, in vivo.
Description: as §2
Control mice were given PBS alone.
as §3, §4, §5, §9, §10, §7, §8
[6] abbreviates: days after cessation of treatment.

Regarding `O=P1(N(CCCl)CCCl)NCCCO1` (centres unmarked) [Cyclophosphamide], the “effect on Aire expression” value in data set [1] (by treatment) is on record as “almost completely abrogated”. In data set [2], the “effect on all thymocyte subsets” value is reported as “marked reduction in all thymocyte subsets” and the “effect on thymic cellularity / thymic involution” value is “severe thymic involution; also recorded: greatest impact on thymic cellularity”. Also, in data set [3] (setting [6]), the “recovery of mTEC-lo cells to normal / untreated levels” value is ≤ 28 days and the “return of TEC subsets to normal / homeostatic proportions” value came out at 28 days. For the same molecule, the “effect on TEC subsets” value in data set [3] is “mTEC-Hi were proportionally the major subset effected; also recorded: ablated all TEC subsets”. In data set [3] (listed as cyclophosphamide), the “effect on TEC subsets” value is reported as “TEC as a population are significantly reduced”. Moreover, the “effect on non-TEC stromal cells” value in data set [3] (mouse, in vivo) is “not effected”.

Turning to `C[C@@H]1C[C@H]2[C@@H]3CCC4=CC(=O)C=C[C@]4(C)[C@@]3(F)[C@@H](O)C[C@]2(C)[C@@]1(O)C(=O)CO` [Dexamethasone], the “effect on Aire expression” value in data set [1] (mouse, in vivo) was “almost completely abrogated”. The “return of thymic cellularity to untreated levels” value in data set [4] is ≤ 14 days. The “effect on all thymocyte subsets” value in data set [4] (ip) is “marked reduction in all thymocyte subsets”. Moreover, in data set [5], the “recovery of mTEC-hi” value was ≤ 14 days, the “return of TEC subsets to normal / homeostatic proportions” value is ≤ 28 days and the “return of cTEC to normal levels / homeostasis” value is ≤ 7 days.
